The values that follow come from EP2818471A1, “Nitrogen bicyclic compounds as inhibitors for Scyl1 and Grk5” (Max-Planck-Gesellschaft zur Förderung der Wissenschaften …, priority 2013, dated 2014).

One data set deals with T1, GRK5 (Homo sapiens, UniProt P34947).
T1 construct: purchased Millipore (KinaseProfiler service)
The data set can be described thus: GRK5 radiometric filtration binding assay (Millipore KinaseProfiler). As to conditions: Table 6. It counts as biochemical. On the procedure: As alternative, IC50 values are determined by a radiometric based filtration binding assay, namely Millipore KinaseProfiler™. GRK5 is incubated with 8 mM MOPS pH7.0, 0.2 mM EDTA, 2 mg/mL casein, 10 mM MgAcetate and […] (specific activity approx. 500 cpm/pmol, concentration as required). The reaction is initiated by the addition of the MgATP mix. After incubation for 40 minutes at room temperature, the reaction is stopped by the addition of 3 % phosphoric acid solution. 10 µL of the reaction is then spotted onto a P30 filtermat and washed three times for 5 minutes in 75 mM phosphoric acid and once in methanol prior to drying and scintillation counting.

The test system of another data set is beta-TC6. Description: MTT cytotoxicity assay (cell viability and proliferation). It counts as cell-based, mouse. Conditions: beta-TC6, 72 h treatment, concentrations up to 10 µM. On the procedure:
Using a MTT approach, we determined the effect on cell viability and proliferation of beta-TC6 and C2C12 cells to display potential cytotoxicity of the compounds according to the invention in vitro after a 72 h treatment.
For MTT (3-(4,5-dimethylthiazol-2-yl)-2,5-diphenyl tetrazolium bromide) transformation, 1/5 of total volume of a 5 mg/mL MTT stock solution was added to the cells as well as control wells and incubated at 37 °C, 5 % CO2 (v/v) for 1 h. Then 1/2 of total volume of MTT-stop solution was added and plates were incubated overnight in the dark at 25 °C. The optical density (OD) was measured using a multiwell spectrophotometer at a wavelength of 570 nm.

The target in data set [1] is T2, full length human Scyl1 (1-808) protein (Homo sapiens, UniProt Q96KG9).
T2 construct: The target enzyme used was the full length human Scyl1 (1-808) protein
T2 sequence (Q96KG9 1-808): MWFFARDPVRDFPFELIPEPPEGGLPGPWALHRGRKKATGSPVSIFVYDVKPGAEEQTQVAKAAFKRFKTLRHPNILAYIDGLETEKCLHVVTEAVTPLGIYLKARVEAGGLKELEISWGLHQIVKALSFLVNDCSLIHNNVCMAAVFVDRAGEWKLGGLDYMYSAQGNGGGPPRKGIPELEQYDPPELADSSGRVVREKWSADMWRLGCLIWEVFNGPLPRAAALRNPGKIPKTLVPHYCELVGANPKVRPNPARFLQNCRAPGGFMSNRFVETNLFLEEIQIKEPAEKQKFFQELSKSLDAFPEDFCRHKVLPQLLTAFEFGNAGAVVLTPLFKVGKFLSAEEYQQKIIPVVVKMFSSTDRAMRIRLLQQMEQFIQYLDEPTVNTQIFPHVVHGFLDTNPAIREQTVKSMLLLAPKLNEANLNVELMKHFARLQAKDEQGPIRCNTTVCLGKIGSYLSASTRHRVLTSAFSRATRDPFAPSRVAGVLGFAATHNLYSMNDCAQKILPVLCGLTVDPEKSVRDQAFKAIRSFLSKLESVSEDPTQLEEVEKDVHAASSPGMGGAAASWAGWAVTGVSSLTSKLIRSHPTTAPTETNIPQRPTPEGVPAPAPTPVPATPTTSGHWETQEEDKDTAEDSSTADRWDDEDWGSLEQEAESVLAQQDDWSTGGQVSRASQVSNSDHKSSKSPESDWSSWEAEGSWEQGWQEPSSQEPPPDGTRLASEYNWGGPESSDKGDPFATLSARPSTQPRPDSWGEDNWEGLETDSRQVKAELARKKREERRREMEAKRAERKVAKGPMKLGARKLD
The data set can be described thus: SCYL1 reporter probe displacement assay. It is filed as binding. On the procedure:
The reporter displacement assay is based on reporter probe (PRO16, Proteros GmbH) that is designed to bind to ATP-binding site of SCYL1 (Methods in Enzymology, 2011, vol. 493, p. 300-319). The proximity between reporter probe and target protein (SCYL1) results in the emission of an optical signal. Test compounds that bind to the same site as the reporter probe displace the probe, causing signal diminution. The rate of reporter probe displacement is measured over time after addition of test compounds at various concentrations.
For Kd determination, percent reporter probe displacement values are calculated for the last time point, at which the system has reached equilibrium. For each compound concentration percent probe displacement values are calculated and plotted against the compound concentration. IC50-like values (corresponding to 50% probe displacement) are calculated using standard fitting algorithms. […] Thus, according to the Cheng Prusoff equation, the Kd value of test compounds can be calculated with Kd = ½ IC50. […]
Probe displacement was calculated in relation to the C+(positive) and C-(negative) controls. The signal reflecting 0% probe displacement (C+) was measured in the absence of test compound, while the signal representing 100% probe displacement (C-) was measured in the absence of Scyl1. […]

T1 sequence (P34947 whole entry): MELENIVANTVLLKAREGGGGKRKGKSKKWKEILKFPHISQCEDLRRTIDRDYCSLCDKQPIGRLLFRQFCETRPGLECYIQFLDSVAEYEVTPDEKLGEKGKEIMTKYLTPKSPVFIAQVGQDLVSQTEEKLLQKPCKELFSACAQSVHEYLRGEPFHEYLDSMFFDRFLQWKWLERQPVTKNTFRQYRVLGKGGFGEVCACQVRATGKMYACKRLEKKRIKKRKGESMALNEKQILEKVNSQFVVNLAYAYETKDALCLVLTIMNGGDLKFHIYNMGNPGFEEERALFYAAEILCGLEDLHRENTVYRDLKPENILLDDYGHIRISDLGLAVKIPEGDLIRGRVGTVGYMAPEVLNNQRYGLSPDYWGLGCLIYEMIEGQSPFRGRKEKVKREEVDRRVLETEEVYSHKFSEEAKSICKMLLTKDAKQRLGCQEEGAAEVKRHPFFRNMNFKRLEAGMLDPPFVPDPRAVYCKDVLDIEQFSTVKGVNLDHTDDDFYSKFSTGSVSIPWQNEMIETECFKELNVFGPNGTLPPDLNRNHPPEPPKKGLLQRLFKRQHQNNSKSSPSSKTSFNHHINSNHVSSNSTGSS

As usually defined, the IC50 is the point on the concentration scale where inhibition reaches its midpoint. Turning to `NC(=O)c1ccc(-c2cnc3ccc(Cc4ccc(F)cc4)nn23)cc1` [compound 1, 4-[6-[(4-fluorophenyl)methyl]imidazo[1,2-b]pyridazin-3-yl]benzamide], the IC50 on GRK5 is 5000 to 20000 nM.

Take `COc1cc(-c2ccc3ncc(-c4cccnc4)n3n2)cc(OC)c1OC` [compound 10, 3-(3-pyridyl)-6-(3,4,5-trimethoxyphenyl)imidazo[1,2-b]pyridazine]: in the data set with beta-TC6, the toxic effect result is on record as “no toxic effect at all”. The compound also showed a half-inhibitory concentration (IC50) in data set [1] (Scyl1 probe displacement) of 500 nM. Moreover, in data set [1] (probe displacement, primary screen), the Inh. is 100%.
